Reference: patent publication US20250042862A1, “AROMATIC HETEROCYCLIC COMPOUND AND APPLICATION THEREOF” (Shanghai Institute of Materia Medica, Chinese Academy of …, priority 2021, published 2025)

These compounds were tested against human recombinant LSD1 protein (Homo sapiens (Human), UniProt O60341) (assay: In vitro enzyme inhibition activity assay - LSD1 (Lance Ultra TR-FRET)). Settings: all compounds tested in the form of hydrochloride.
Format: biochemical
Protocol: The purpose of this experiment was to test the in vitro inhibitory activity of the compounds against LSD1. The human recombinant LSD1 protein used in the experiment was purchased from Active Motif, and the enzyme level activity testing assay of LSD1 was performed using the Lance Ultra LSD1 Histone H3 Lysine 4 Demethylase Assay Kit (PerkinElmer). Tris-buffer (50 mMTris-HCl, 50 mMNaCl, 0.01% Tween-20, 1 mM DTT, 10 μM FAD, 10% glycerol, pH 9.0) was first prepared, and after preparation, the LSD1 fractions required for test were placed in this buffer and incubated for one hour at room temperature; the fractions included 4 μL of substrate solution ([…] Bio-H3K4me2, 1-24aa), 4 μL of enzyme solution (4 nM LSD1), and 2 μL of inhibitor in a 384-well microplate. After these operations, another 5 μL of assay mixture containing Eu-labeled H3K4me0 antibody and ULight-Streptavidin anti-biotin protein was added to the system, after which the fluorescence intensity of the components to be tested was detected by using Envision (PerkinElmer) in TR-FRET mode (excitation wavelength of 320 nm, emission wavelength of 620 nm). The test was repeated a total of three times to minimize errors. The final IC50 data were calculated by the software GraphPad Prism 5, and finally the sigmoidal dose-response (variable slope) method was used to obtain the fitted curve.
The LSD1 inhibitory activities of representative compounds of the present application as well as the positive control compound CC90011 were provided in Table 2. All compounds were tested in the form of hydrochloride.
For `N#Cc1ccc(-c2nc(N3CC[C@@H](N)[C@H](F)C3)nc3ccc(-c4c(F)cccc4C(F)(F)F)cc23)cc1F` [Compound 84, 4-(2-((3R,4R)-4-amino-3-fluoropiperidin-1-yl)-6-(2-fluoro-6-(trifluoromethyl)phenyl)quinazolin-4-yl)-2-fluorobenzonitrile], the IC50 was 30 to 300 nM. Work on `Cc1ccccc1-c1ccc2nc(NCC3CCNC3)nc(-c3ccc(C#N)c(F)c3)c2c1` (stereo not shown) [Compound 34, 2-Fluoro-4-(2-((pyrrolidin-3-ylmethyl)amino)-6-(o-methylphenyl)quinazolin-4-yl)benzonitrile] yielded an IC50 of no more than 30 nM. `N#Cc1ccc(-c2nc(NC[C@H]3CCNC3)nc3ccc(-c4cccc(F)c4F)cc23)cc1F` [Compound 43, (S)-2-fluoro-4-(2-((pyrrolidin-3-ylmethyl)amino)-6-(2,3-difluorophenyl)quinazolin-4-yl)-2-fluorobenzonitrile] was tested, and the IC50 was 30 to 300 nM. `N#Cc1ccc(-c2nc(N3CCC(N)CC3)nc3cc(F)c(-c4ccccc4C(F)(F)F)cc23)cc1F` [Compound 79, 4-(2-(4-Aminopiperidin-1-yl)-7-fluoro-6-(2-(trifluoromethyl)phenyl)quinazolin-4-yl)-2-fluorobenzonitrile] was tested, and the IC50 was 30 to 300 nM. `Cc1cccc(-c2ccc3nc(NC[C@H]4CCNC4)nc(-c4ccc(C#N)c(F)c4)c3c2)c1C(F)(F)F` [Compound 59, (S)-2-fluoro-4-(6-(3-methyl-2-(trifluoromethyl)phenyl)-2-((pyrrolidin-3-ylmethyl)amino)quinazolin-4-yl)benzonitrile] gave an IC50 of 30 to 300 nM. Work on `CC1(N)CCN(c2nc(-c3ccc(C#N)c(F)c3)c3cc(-c4c(F)cccc4C(F)(F)F)ccc3n2)CC1` [Compound 63, 4-(2-(4-Amino-4-methylpiperidin-1-yl)-6-(2-fluoro-6-(trifluoromethyl)phenyl)quinazolin-4-yl)-2-fluorobenzonitrile] yielded an IC50 of no more than 30 nM. `Cn1ncc2c(-c3ccc4nc(N5CCC(N)CC5)nc(-c5ccc(C#N)c(F)c5)c4c3)cccc21` [Compound 10, 4-(2-(4-aminopiperidin-1-yl)-6-(1-methyl-1H-indazol-4-yl)quinazolin-4-yl)-2-fluorobenzonitrile] gave an IC50 of 30 to 300 nM. Work on `N#Cc1ccc(-c2nc(N3CC[C@H](N)[C@@H](F)C3)nc3ccc(-c4c(F)cccc4C(F)(F)F)cc23)cc1F` [Compound 85, 4-(2-((3S,4S)-4-amino-3-fluoropiperidin-1-yl)-6-(2-fluoro-6-(trifluoromethyl)phenyl)quinazolin-4-yl)-2-fluorobenzonitrile] yielded an IC50 of 30 to 300 nM. `N#Cc1ccc(-c2nc(NC[C@H]3CCNC3)nc3ccc(-c4ccccc4F)cc23)cc1F` [Compound 41, (S)-2-fluoro-4-(2-((pyrrolidin-3-ylmethyl)amino)-6-(2-fluorophenyl)quinazolin-4-yl)-2-fluorobenzonitrile] was tested, and the IC50 was 30 to 300 nM. In the case of `N#Cc1ccc(-c2nc(NC[C@H]3CCNC3)nc3ccc(-c4cccc(F)c4C(F)(F)F)cc23)cc1F` [Compound 57, (S)-4-(6-(3-fluoro-2-(trifluoromethylphenyl)-2-(pyrrolidin-3-ylmethyl)amino)quinazolin-4-yl)-2-fluorobenzonitrile], the IC50 is reported as no more than 30 nM. Work on `Cc1ccccc1-c1ccc2nc(N3CCC(N)CC3)nc(-c3ccc(C#N)c(F)c3)c2c1` [Compound 6, 4-(2-(4-aminopiperidin-1-yl)-6-(o-methylphenyl)quinazolin-4-yl)-2-fluorobenzonitrile] yielded an IC50 of 30 to 300 nM. Work on `N#Cc1ccc(-c2nc(N3CC[C@@H](N)[C@@H](F)C3)nc3ccc(-c4c(F)cccc4C(F)(F)F)cc23)cc1F` [Compound 83, 4-(2-((3S,4R)-4-amino-3-fluoropiperidin-1-yl)-6-(2-fluoro-6-(trifluoromethyl)phenyl)quinazolin-4-yl)-2-fluorobenzonitrile] yielded an IC50 of 30 to 300 nM. `N#Cc1ccc(-c2nc(N3CC[C@H](N)[C@H](F)C3)nc3ccc(-c4c(F)cccc4C(F)(F)F)cc23)cc1F` [Compound 67, 4-(2-((3R,4S)-4-amino-3-fluoropiperidin-1-yl)-6-(2-fluoro-6-(trifluoromethyl)phenyl)quinazolin-4-yl)-2-fluorobenzonitrile] showed an IC50 of no more than 30 nM. In the case of `N#Cc1ccc(-c2nc(NC[C@H]3CCNC3)nc3ccc(-c4c(F)cccc4F)cc23)cc1F` [Compound 50, (S)-4-(6-(2,6-difluorophenyl)-2-((pyrrolidin-3-ylmethyl)amino)quinazolin-4-yl)-2-fluorobenzonitrile], the IC50 is reported as 30 to 300 nM. Work on `Cc1c(F)cccc1-c1ccc2nc(NC[C@H]3CCNC3)nc(-c3ccc(C#N)c(F)c3)c2c1` [Compound 47, (S)-2-fluoro-4-(6-(3-fluoro-2-methylphenyl)-2-((pyrrolidin-3-ylmethyl)amino)quinazolin-4-yl)benzonitrile] yielded an IC50 of 30 to 300 nM. `N#Cc1ccc(-c2nc(N3CCCC[C@@H](N)C3)nc3ccc(-c4c(F)cccc4C(F)(F)F)cc23)cc1F` [Compound 87, (R)-4-(2-(3-aminoazepan-1-yl)-6-(2-fluoro-6-(trifluoromethyl)phenyl)quinazolin-4-yl)-2-fluorobenzonitrile] gave an IC50 of no more than 30 nM. `COc1ccc(-c2ccc3nc(NCC4CCNC4)nc(-c4ccc(C#N)c(F)c4)c3c2)cc1F` (stereo not shown) [Compound 29, 2-Fluoro-4-(6-(3-fluoro-4-methoxyphenyl)-2-((pyrrolidin-3-ylmethyl)amino)quinazolin-4-yl)benzonitrile] showed an IC50 of 30 to 300 nM. Compound `N#Cc1ccc(-c2nc(NC[C@H]3CCNC3)nc3ccc(-c4c(Cl)cccc4C(F)(F)F)cc23)cc1F` [Compound 52] has an IC50 of 30 to 300 nM. `Cc1cscc1-c1ccc2nc(NC[C@H]3CCNC3)nc(-c3ccc(C#N)c(F)c3)c2c1` [Compound 44, (S)-2-fluoro-4-(6-(4-methylthiophen-3-yl)-2-((pyrrolidin-3-ylmethyl)amino)quinazolin-4-yl)benzonitrile] was tested, and the IC50 was 30 to 300 nM. With `N#Cc1ccc(-c2nc(NC[C@H]3CCNC3)nc3ccc(-c4c(F)cccc4C(F)(F)F)cc23)cc1F` [Compound 54, (S)-4-(6-(2-fluoro-6-(trifluoromethylphenyl)-2-(pyrrolidin-3-ylmethyl)amino)quinazolin-4-yl)-2-fluorobenzonitrile] the IC50 was no more than 30 nM. Work on `N#Cc1ccc(-c2nc(N3CC[C@@H](N)C3)nc3ccc(-c4c(F)cccc4C(F)(F)F)cc23)cc1F` [Compound 91, (R)-4-(2-(3-aminopyrrolidin-1-yl)-6-(2-fluoro-6-(trifluoromethyl)phenyl)quinazolin-4-yl)-2-fluorobenzonitrile] yielded an IC50 of no more than 30 nM. For `N#Cc1ccc(-c2nc(N3CCC(N)CC3)cc3ccc(-c4c(F)cccc4C(F)(F)F)cc23)cc1F` [Compound 98, 4-(3-(4-Aminopiperidin-1-yl)-7-(2-fluoro-6-(trifluoromethyl)phenyl)isoquinolin-1-yl)-2-fluorobenzonitrile], the IC50 was no more than 30 nM. For `N#Cc1ccc(-c2nc(N3CCC(N)CC3)nc3ccc(-c4ccccc4C(F)(F)F)cc23)cc1F` [Compound 14, 4-(2-(4-aminopiperidin-1-yl)-6-(2-(trifluoromethyl)phenyl)quinazolin-4-yl)-2-fluorobenzonitrile], the IC50 was no more than 30 nM. For `COc1ccc(-c2ccc3nc(N4CCC(N)CC4)nc(-c4ccc(C#N)nc4)c3c2)cc1F` [Compound 24, 5-(2-(4-aminopiperidin-1-yl)-6-(3-fluoro-4-methoxyphenyl)quinazolin-4-yl)pyridinecarbonitrile], the IC50 was 30 to 300 nM. Work on `N#Cc1ccc(-c2nc(N3CCC(N)CC3)nc3ccc(-c4ccccc4OC(F)(F)F)cc23)cc1F` [Compound 13, 4-(2-(4-aminopiperidin-1-yl)-6-(2-(trifluoromethoxy)phenyl)quinazolin-4-yl)-2-fluorobenzonitrile] yielded an IC50 of 30 to 300 nM. In the case of `N#Cc1ccc(-c2nc(N3CCCC[C@H](N)C3)nc3ccc(-c4c(F)cccc4C(F)(F)F)cc23)cc1F` [Compound 86, (S)-4-(2-(3-aminoazepan-1-yl)-6-(2-fluoro-6-(trifluoromethyl)phenyl)quinazolin-4-yl)-2-fluorobenzonitrile], the IC50 is reported as no more than 30 nM. `CN(C)C1CCN(c2nc(-c3ccc(C#N)c(F)c3)c3cc(-c4c(F)cccc4C(F)(F)F)ccc3n2)CC1` [Compound 73, 4-(2-(4-(Dimethylamino)piperidin-1-yl)-6-(2-fluoro-6-(trifluoromethyl)phenyl)quinazolin-4-yl)-2-fluorobenzonitrile] gave an IC50 of no more than 30 nM. Work on `Cn1ncc2cc(-c3ccc4nc(N5CCC(N)CC5)nc(-c5ccc(C#N)c(F)c5)c4c3)ccc21` [Compound 9, 4-(2-(4-aminopiperidin-1-yl)-6-(1-methyl-1H-indazol-5-yl)quinazolin-4-yl)-2-fluorobenzonitrile] yielded an IC50 of 30 to 300 nM. `Cc1cccc(C)c1-c1ccc2nc(N3CCC(N)CC3)nc(-c3ccc(C#N)c(F)c3)c2c1` [Compound 12, 4-(2-(4-Aminopiperidin-1-yl)-6-(2,6-dimethylphenyl)quinazolin-4-yl)-2-fluorobenzonitrile] showed an IC50 of no more than 30 nM. With `N#Cc1ccc(-c2nc(N3CCC(N)CC3)nc3ccc(-c4ccccc4F)cc23)cc1F` [Compound 15, 4-(2-(4-aminopiperidin-1-yl)-6-(2-fluorophenyl)quinazolin-4-yl)-2-fluorobenzonitrile] the IC50 was 30 to 300 nM. For `N#Cc1ccc(-c2nc(N3CC[C@H](N)C3)nc3ccc(-c4c(F)cccc4C(F)(F)F)cc23)cc1F` [Compound 90, (S)-4-(2-(3-aminopyrrolidin-1-yl)-6-(2-fluoro-6-(trifluoromethyl)phenyl)quinazolin-4-yl)-2-fluorobenzonitrile], the IC50 was no more than 30 nM.
